Results: patent US5693650A, “4-(Quinolin-2-yl-methoxy)-phenyl-acetic acid derivatives” (Bayer Aktiengesellschaft, priority 1994, dated 1997)

Test system: ApoB-100-associated lipoproteins
Assay: Inhibition of the release of ApoB-100-associated lipoproteins from liver cells (HepG2), immunoassay for human LDL
Type: cell-based
Conditions: release of ApoB-100-associated particles into HepG2 culture supernatant, 50% inhibition of light adsorption at 450 nm vs solvent control
Experimental: The test for detection of the inhibition of the release of ApoB-100-associated lipoproteins from liver cells was carried out in vitro with cultured liver cells, preferably with cells of the human line HepG2. These cells are grown under standard conditions in a medium for culture of eukaryotic cells, preferably in RPMI 1640, with 10% of foetal calf serum. HepG2 cells synthesize and secrete into the culture supernatant ApoB-100-associated lipoprotein particles, which in principle are built up in a similar manner to the VLDL and LDL particles which are to be found in the plasma.
These particles can be detected with an immunoassay for human LDL. This immunoassay is carried out with antibodies which have been induced against human LDL in the rabbit under standard conditions. The anti-LDL antibodies (rab-anti-LDL-ab) were purified by affinity chromatography on an immunosorbent with human LDL. These purified rab-anti-LDL-ab are adsorbed onto the surface of plastic. This adsorption is expediently carried out on the plastic surface of microtiter plates having 96 wells, preferably on MaxiSorp plates (Nunc). If ApoB-100-associated particles are present in the supernatant of HepG2 cells, these can bind to the insolubilized rab-anti-LDL-ab, and an immune complex which is bonded to the plastic surface is formed. Non-bonded proteins are removed by washing. The immune complex on the plastic surface is detected with monoclonal antibodies, which had been induced against human LDL according to standard conditions and purified. These antibodies were conjugated with the enzyme peroxidase (Boehringer, Mannheim). Peroxidase converts the colourless substrate TMB (Kirkegaard and Perry) into a coloured product in the presence of H2 O2. After acidification of the reaction mixture with H2 SO4, the specific light adsorption at 450 nm, which is a measure of the amount of ApoB-100-associated particles which had been secreted into the culture supernatant by the HepG2 cells, is determined.
The IC50 value indicates the concentration of substance at which the light adsorption is inhibited by 50% in comparison with the control (solvent control without substance).

| IC50 [µM] | Structure (SMILES) |
| --- | --- |
| 0.5 | O=C(NC(CO)c1cccc(F)c1)C(c1ccc(OCc2ccc3ccccc3n2)cc1)C1CCCC1 (stereo not shown) [Example 15] |
| 0.25 | O=C(NC(CO)c1cccs1)C(c1ccc(OCc2ccc3ccccc3n2)cc1)C1CCCC1 (stereo not shown) [Example 53] |
| 0.13 | O=C([C@H](c1ccc(OCc2ccc3ccccc3n2)cc1)C1CCCCCC1)N(CCO)c1ccccc1 [Example 127] |
| 0.02 | O=C(NCc1ccccc1)[C@H](c1ccc(OCc2ccc3ccccc3n2)cc1)C1CCCCCC1 [Example 141] |
